Test results as given in US11766430B2, “Methods of using a phenoxypropylamine compound to treat pain” (Minerva Neurosciences, Inc., priority 2018, dated 2023).
Entries after “also recorded” stand apart in the source; their conditions may differ.

Columns and labels:
[1] = test system: chemotherapy-induced peripheral neuropathic pain in rats; assay: Paclitaxel-induced peripheral neuropathic pain, paw withdrawal threshold with von Frey filaments, single administration (Example 5); type: in vivo, Male Sprague Dawley rats; conditions: for Paw withdrawal threshold (PWT) compared to vehicle (in words): Day 14; for Paw withdrawal threshold (PWT), Day 14 Avg., Mean: i.p., 2 hours prior to test, Count 12
Method: Assessment of neuropathic pain using von Frey filaments was performed. Rats were administered paclitaxel (2 mg/kg) on four alternate days (days 1, 3, 5 and 7). Baseline and post treatment paw withdrawal thresholds (PWT) were evaluated using von Frey filaments (Semmes-Weinstein filaments, Stoelting, Wood Dale, Ill., USA) of varying stiffness (0.4, 0.7, 1.2, 2.0, 3.6, 5.5, 8.5, 10, 15, 26 g). Animals were placed on a perforated metallic platform and allowed to acclimate to their surroundings for a minimum of 15 minutes before each test session. Each filament was presented perpendicular to the plantar surface with sufficient force to cause slight buckling against the paw, and then held until a positive response is noted (paw sharply withdrawn). As described by Chaplan, S. R. et al. “Qualitative Assessment of Tactile Allodynia in the Rat Paw” Journal of Neuroscience Methods, 53 (1994), 55-63 (“Chaplan”), once the threshold was crossed, the 2 responses straddling the threshold are retrospectively designated as the first 2 responses. Four additional responses were measured to stimuli varied sequentially up or down based on the animal's response. The 6 responses in the immediate vicinity of the threshold were used to calculate the 50% g threshold: 50% g threshold=(10^[Xf+k*d])/10000
Xf is the final filament used (in log units). The parameter k is from the Appendix 1 in Chaplan and was determined by the pattern of the von Frey responses (e.g. OXOXOX where ‘O’ indicates no response and ‘X’ denotes a withdrawal). The parameter d is the difference between stimuli which Chaplan used a constant d=0.224. To accommodate for the use of the 10 g and 26 g filaments, the exact difference between stimuli were used.
(§1) Male Sprague Dawley rats (from Envigo, Ind., USA) were used in the study. Animals were received at approximately 250 g and housed 3 per cage upon arrival. All rats were examined, handled, and weighed prior to initiation of the study to assure adequate health and suitability. During the course of the study, 12 h/12 h light/dark cycles was maintained. The room temperature was be maintained between 20 and 23° C. with a relative humidity maintained around 50%. Chow and water was provided ad libitum for the duration of the study. All testing was performed during the animal's light cycle phase. Every effort was made to minimize suffering of animals. Rats with baseline PWT less than 12 g were not included in the study. Rats were balanced by body weight and by their pre-paclitaxel PWT values. ANOVA found no significant differences between the treatment groups.
Paclitaxel was purchased from Biolyse Pharma (Ontario, Canada) and was injected i.p. (2 mg/kg) on four alternate days (day 1, 3, 5 and 7) for a total of 4 injections at a dose volume of 1 mL/kg.
Rats were subsequently balanced and assigned to treatment groups based on post-paclitaxel PWT values. On test day, PWT was assessed two hours post vehicle or MIN-117 injections and one hour after gabapentin administration.
Gabapentin was purchased from Toronto Research Chemicals and was dissolved in saline and administered orally 60 minutes prior to test at a dose volume of 1 mL/kg. MIN-117 (1, 3 and 10 mg/kg), formulated in 0.5% (w/v) hydroxypropylmethylcellulose (HPMC, Sigma-Aldrich), was administered i.p. at a dose volume of 1 mL/kg. MIN-117 was administered 2 hours prior to test.

[2] = Body weight during the chemotherapy induced neuropathic pain study (Example 5); type: in vivo, Male Sprague Dawley rats; conditions: paclitaxel days 1, 3, 5, 7; test compound on day 14; repeated measures ANOVA
Method: as §1

In the case of `Cc1nnc(-c2cc3c(OC[C@@H](O)CN4CCC(c5ccc(Cl)c(Cl)c5)CC4)cccc3o2)o1.Cl` [MIN-117, (2S)-1-(4-(3,4-dichlorophenyl)piperidin-1-yl)-3-((2-(5-methyl-1,3,4-oxadiazol-2-yl)benzofuran-4-yl)oxy)propan-2-ol hydrochloride], the “Paw withdrawal threshold (PWT) compared to vehicle (in words)” value ([1]; 1 mg/kg i.p. 2 hours prior to test) is reported as “did not show a significant increase in PWT”, the “Paw withdrawal threshold (PWT) compared to vehicle (in words)” value ([1]; 3 mg/kg i.p. 2 hours prior to test, hydrochloride, 3 mg/kg) is reported as “significant increase in PWT; also recorded: significantly reduced neuropathic pain” and the “Paw withdrawal threshold (PWT) compared to vehicle (in words)” value ([1]; 10 mg/kg i.p. 2 hours prior to test, hydrochloride, 10 mg/kg) is reported as “significant increase in PWT; also recorded: significantly reduced neuropathic pain”. For the same compound, the “Mean Diff. of Day 14 Avg. PWT, Fisher's PLSD” value (“Mean Diff. of Day 14 Avg. PWT” for short) ([1]; Paclitaxel + Gabapentin (100 mg/kg), Paclitaxel + MIN-117 (1 mg/kg)) was 14.200, the “Mean Diff. of Day 14 Avg. PWT” value ([1]; Paclitaxel + Gabapentin (100 mg/kg), Paclitaxel + MIN-117 (3 mg/kg)) was 12.775 and the “Mean Diff. of Day 14 Avg. PWT” value ([1]; Paclitaxel + Gabapentin (100 mg/kg), Paclitaxel + MIN-117 (10 mg/kg)) was 11.802. The “Mean Diff. of Day 14 Avg. PWT” value ([1]; Paclitaxel + MIN-117 (1 mg/kg), Paclitaxel + MIN-117 (3 mg/kg)) was −1.425, the “Mean Diff. of Day 14 Avg. PWT” value ([1]; Paclitaxel + MIN-117 (1 mg/kg), Paclitaxel + MIN-117 (10 mg/kg)) was −2.399 and the “Paw withdrawal threshold (PWT), Day 14 Avg., Mean” value (“Paw withdrawal threshold … Mean” below) ([1]; Paclitaxel + MIN-117 (1 mg/kg)) was 5.433 g. The “Paw withdrawal threshold … Mean” value ([1]; Paclitaxel + MIN-117 (3 mg/kg)) was 6.858 g, the “Paw withdrawal threshold … Mean” value ([1]; Paclitaxel + MIN-117 (10 mg/kg)) was 7.832 g and the “Mean Diff. of Day 14 Avg. PWT” value ([1]; Paclitaxel + Vehicle, Paclitaxel + MIN-117 (1 mg/kg)) was −1.558. For the same compound, the “Mean Diff. of Day 14 Avg. PWT” value ([1]; Paclitaxel + Vehicle, Paclitaxel + MIN-117 (3 mg/kg)) was −2.984, the “Mean Diff. of Day 14 Avg. PWT” value ([1]; Paclitaxel + Vehicle, Paclitaxel + MIN-117 (10 mg/kg)) was −3.957 and the “Body weight during the study, between groups (in words)” value [2] was “no significant difference between groups”.
